{"source": "patent US20250314644A1", "about": "“METHODS COMPRISING DETECTION OF ADP-HEPTOSE” (CHILDREN'S HOSPITAL MEDICAL CENTER, priority 2023, published 2025)", "key": {"[1]": {"system": "Dnmt3a^KO; Alpk1^KO cells", "experiment": "RNA-sequencing of HSPCs treated in vitro with ADP-heptose or H2O for 90 minutes", "assay_type": "cell-based, mouse", "details": "vs H2O"}, "[2]": {"system": "Dnmt3a^−/− mice", "experiment": "Cytokines measured in BM fluid after ADP-heptose in vivo", "parameters": "species or system mouse", "protocol": "FIG. 9 depicts the effects of ADP-heptose on inflammatory cytokines and downstream signaling. (A) Heatmap of differentially expressed cytokines and chemokines as measured in the BM fluid of Dnmt3a^WT, Dnmt3a^KO, and Dnmt3a^KO; Alpk1^KO mice treated with ADP-heptose (0.5 mg/kg) in vivo. (B) Immunoblotting performed on THP1 cells untreated or treated with ADP-heptose (1 μg/ml) in combination with DMSO (−), UBE2N inhibitor at 5 μM (+), UBE2N inhibitor at 10 μM (++), IRAK1/4 inhibitor at 0.25 μM (+), and IRAK1/4 inhibitor at 0.5 μM (++) for 30 minutes. (C) Immunoblot analysis of NF-kB modulators on THP1 wildtype (WT), IRAK1KO, IRAK4KO, IRAK1/4d^KO, MyD88KO, and TRAF6^KO cells upon treatment with ADP-heptose (1 μg/ml) for 30 minutes.\nDysregulation of innate immune and inflammatory states is implicated in pre-leukemic conditions and overt leukemia by creating an inflammatory environment suppressive for normal hematopoiesis while promoting leukemic stem and progenitor cell expansion. Moreover, chronic inflammation associated with CHIP is implicated in cardiovascular disease. […] First, to determine whether ADP-heptose treatment creates an inflammatory milieu, Dnmt3a^−/− and WT mice were treated with ADP-heptose and cytokines were measured in the BM fluid."}, "[3]": {"system": "Dnmt3a^−/−; Alpk1^−/− HSCs", "experiment": "ADP-heptose treatment of low-dose irradiated chimeric mice: donor HSC number, EdU proliferation, secondary transplant", "assay_type": "in vivo, mouse", "description": "To model pre-leukemic clonal hematopoiesis, chimeric mice were generated as aas follows. Briefly, mixture of 1×10^6 whole bone marrow cells (WBM) were obtained from Poly (I:C) treated wild-type (Dnmt3a^+/+; MxCre^+, called Dnmt3a^WT) or mutant mice (Dnmt3a^f/f; MxCre^+, called Dnmt3a^KO) or double mutant mice (Dnmt3a^f/f; MxCre^+; Alpk1^KO, called Dnmt3a^KO; Alpk1^KO) (CD45.2^+), and transplanted into low-dose (2.5 Gy) irradiated recipient mice (CD45.1^+; 6-10 weeks of age). 8 weeks post-transplant, chimeric mice were treated with either water (H2O) or DSS (2.5%) for 1 week, and allowed to recover for 1 more week on water after which flow cytometry was performed on BM. In separate experiment, chimeric mice were pre-treated with broad spectrum antibiotics (ABX) for 4 weeks, and then subjected to DSS for 1 week after which flow cytometry performed on BM. In a separate set of experiment, chimeric mice were treated with either H2O or ADP-heptose (0.5 mg/kg) for 2 weeks, and flow cytometry performed after 2 more weeks on BM. In all the experiments, secondary transplantation was performed by purifying donor HSCs (CD45.2^+Lin^−Sca-1^+c-Kit^+Flk2^−CD150^+CD48^−) and transplanting 100 HSCs with 200,000 helper WBM cells (CD45.1+) into lethally irradiated (8 Gy) recipient mice (CD45.1^+), and donor chimerism in PB examined by flow cytometry."}}, "data": [{"compound": "Nc1ncnc2c1ncn2[C@@H]1O[C@H](COP(=O)(O)OP(=O)(O)O[C@@H]2O[C@H]([C@H](O)CO)[C@@H](O)[C@H](O)[C@@H]2O)[C@@H](O)[C@H]1O", "note": "[ADP-heptose, ADP-D-glycero-β-D-manno-heptose]", "values": [{"measurement": "logFC 7fp418", "setting": "[1]", "value": "−0.871"}, {"measurement": "logFC 1110019D14Rik", "setting": "[1]", "value": "−0.854"}, {"measurement": "logFC 1700037C18Rik", "setting": "[1]", "value": 0.829}, {"measurement": "logFC 2810408A11Rik", "setting": "[1]", "value": "−0.812"}, {"measurement": "logFC 4930451G09Rik", "setting": "[1]", "value": 0.8284}, {"measurement": "logFC 4933407K13Rik", "setting": "[1]", "value": "−0.692"}, {"measurement": "logFC 5031425F14Rik", "setting": "[1]", "value": 0.715}, {"measurement": "logFC 9330182L06Rik", "setting": "[1]", "value": "−1.241"}, {"measurement": "logFC A430105I19Rik", "setting": "[1]", "value": 1.602}, {"measurement": "logFC A930013F10Rik", "setting": "[1]", "value": 0.5873}, {"measurement": "logFC AI607873", "setting": "[1]", "value": 0.7333}, {"measurement": "logFC Abcb4", "setting": "[1]", "value": 0.7782}, {"measurement": "logFC Ambp", "setting": "[1]", "value": 0.8742}, {"measurement": "logFC Aqp1", "setting": "[1]", "value": 0.6005}, {"measurement": "logFC Arg1", "setting": "[1]", "value": 1.214}, {"measurement": "logFC Azin2", "setting": "[1]", "value": 0.7217}, {"measurement": "logFC BC100530", "setting": "[1]", "value": "−0.982"}, {"measurement": "logFC Bambi-ps1", "setting": "[1]", "value": "−0.651"}, {"measurement": "logFC Caprin2", "setting": "[1]", "value": "−0.787"}, {"measurement": "logFC Ces1d", "setting": "[1]", "value": "−0.735"}, {"measurement": "logFC Cgref1", "setting": "[1]", "value": 1.029}, {"measurement": "logFC Ctsf", "setting": "[1]", "value": "−0.836"}, {"measurement": "logFC Ctsk", "setting": "[1]", "value": "−0.954"}, {"measurement": "logFC D630023F18Rik", "setting": "[1]", "value": "−0.819"}, {"measurement": "logFC Epha7", "setting": "[1]", "value": "−0.73"}, {"measurement": "logFC Erdr1", "setting": "[1]", "value": "−1.542"}, {"measurement": "logFC Foxd4", "setting": "[1]", "value": "−0.677"}, {"measurement": "logFC Gas6", "setting": "[1]", "value": "−0.682"}, {"measurement": "logFC Gbp9", "setting": "[1]", "value": 1.092}, {"measurement": "logFC Gm4285", "setting": "[1]", "value": "−1.087"}, {"measurement": "logFC Gm5069", "setting": "[1]", "value": "−0.82"}, {"measurement": "logFC Gm15694", "setting": "[1]", "value": 0.9249}, {"measurement": "logFC Gm16023", "setting": "[1]", "value": 0.8494}, {"measurement": "logFC Gm21057", "setting": "[1]", "value": "−1.133"}, {"measurement": "logFC Hist1h1e", "setting": "[1]", "value": "−0.799"}, {"measurement": "logFC Hist1h2be", "setting": "[1]", "value": "−1.019"}, {"measurement": "logFC Hist1h4h", "setting": "[1]", "value": "−1.162"}, {"measurement": "logFC Hmga1", "setting": "[1]", "value": "−0.621"}, {"measurement": "logFC Irf7", "setting": "[1]", "value": 0.6473}, {"measurement": "logFC Isg15", "setting": "[1]", "value": 0.6427}, {"measurement": "logFC Kif1a", "setting": "[1]", "value": "−0.954"}, {"measurement": "logFC Kif9", "setting": "[1]", "value": 1.387}, {"measurement": "logFC Lars2", "setting": "[1]", "value": "−1.194"}, {"measurement": "logFC Lrrc51", "setting": "[1]", "value": 1.737}, {"measurement": "logFC Ltc4s", "setting": "[1]", "value": 0.978}, {"measurement": "logFC Ly6i", "setting": "[1]", "value": 0.764}, {"measurement": "logFC Nefh", "setting": "[1]", "value": 0.6222}, {"measurement": "logFC Nr1h3", "setting": "[1]", "value": "−0.655"}, {"measurement": "logFC Oas1g", "setting": "[1]", "value": 0.6168}, {"measurement": "logFC Oas2", "setting": "[1]", "value": 0.8787}, {"measurement": "logFC Oas3", "setting": "[1]", "value": 0.6718}, {"measurement": "logFC Oasl1", "setting": "[1]", "value": 0.7357}, {"measurement": "logFC Oasl2", "setting": "[1]", "value": 0.9665}, {"measurement": "logFC Paqr3", "setting": "[1]", "value": "−0.758"}, {"measurement": "logFC Pcsk9", "setting": "[1]", "value": "−1.15"}, {"measurement": "logFC Rhcg", "setting": "[1]", "value": 1.146}, {"measurement": "logFC Rn45s", "setting": "[1]", "value": "−1.533"}, {"measurement": "logFC Rsad2", "setting": "[1]", "value": 0.9464}, {"measurement": "logFC Rtp4", "setting": "[1]", "value": 1.172}, {"measurement": "logFC Sdhaf3", "setting": "[1]", "value": "−0.856"}, {"measurement": "logFC Sfxn4", "setting": "[1]", "value": "−1.009"}, {"measurement": "logFC Slfn5", "setting": "[1]", "value": 1.078}, {"measurement": "logFC Stac3", "setting": "[1]", "value": 0.7901}, {"measurement": "logFC Stbd1", "setting": "[1]", "value": 0.9881}, {"measurement": "logFC Stxbp3-ps", "setting": "[1]", "value": "−0.814"}, {"measurement": "logFC Syp", "setting": "[1]", "value": 0.7928}, {"measurement": "logFC Tagln", "setting": "[1]", "value": 1.205}, {"measurement": "logFC Tchh", "setting": "[1]", "value": 1.26}, {"measurement": "logFC Tle6", "setting": "[1]", "value": "−0.734"}, {"measurement": "logFC Usp18", "setting": "[1]", "value": 0.7247}, {"measurement": "logFC Xaf1", "setting": "[1]", "value": 0.6469}, {"measurement": "logFC Zbp1", "setting": "[1]", "value": 0.6712}, {"measurement": "logFC Zdhhc2", "setting": "[1]", "value": 0.7176}, {"measurement": "logFC Zdhhc15", "setting": "[1]", "value": 0.9343}, {"measurement": "logFC Zfp54", "setting": "[1]", "value": "−0.829"}, {"measurement": "cytokines in BM fluid (IL-1β, G-CSF, TNFα)", "setting": "[2]", "value": "elevated expression of numerous cytokines"}, {"measurement": "proliferation of HSCs in vivo (EdU)", "setting": "[3]", "value": "completely abrogated"}, {"measurement": "expansion and self-renewal in recipient mice", "setting": "[3]; ADP-heptose administration", "value": "unable to expand nor self-renew"}]}]}
